From patent US20030199743A1, “Screening test and procedure using apocrine sweat” (priority 2000, published 2003) come the findings set out here.

The nature of this series: THC in blood, eccrine sweat, apocrine sweat and urine after smoking a THC containing product. Format: in vivo, human. Here is the method: Samples of apocrine and eccrine sweat were collected prior to oral consumption of a THC containing product. No THC was detected in either sample. The test individual then orally consumed (smoked) a quantity of a THC containing product. Small quantities (0.5 cc) of apocrine and eccrine sweat was separately collected over a period of 30 minutes under ambient conditions to induce sweating. When the collected samples were tested using standard laboratory tests for THC metabolites […].

`CCCCCc1cc(O)c2c(c1)OC(C)(C)[C@@H]1CCC(C)=C[C@@H]21` [Delta 9 THC, delta nine tetrahydrocannibinol]: where the note is “apocrine sweat (0.5 cc) collected over 30 minutes after smoking a THC containing product”, the “Delta 9 THC concentration in apocrine sweat” value turned out to be 107 nanograms/ml. Further, the “Delta 9 THC concentration in blood” value (blood, test individual after smoking a THC containing product, standard laboratory test for THC) came to 21 nanograms/ml. Besides, the “Delta 9 THC concentration in eccrine sweat” value (eccrine sweat (0.5 cc) collected over 30 minutes after smoking a THC containing product) is given as 4 nanograms/ml. For the same molecule, where the note is “ratio apocrine sweat / blood”, the “Quantity of THC in apocrine sweat relative to blood” value worked out at 5.1 times. Besides, the “Quantity of THC in apocrine sweat relative to eccrine sweat” value (ratio apocrine sweat / eccrine sweat) is 26.75 times. In addition, the “Delta 9 THC concentration in urine” value (urine, after smoking a THC containing product) is on record as “undetect-”.
